Results on 26 molecules are retold here after patent US9303042B2, “Triazolothienopyrimidine compound inhibitors of urea transporters and methods of using inhibitors” (The Regents of the University of California, priority 2012, dated 2016).

Like-named read-outs stand apart in the source and are kept apart here.

A short description of data set [1]: In vitro metabolic stability in hepatic microsomes. The class given is in vitro ADME, rat. The note with it: for % Remaining after 10 min incubation with liver microsomes: NADPH, compound 5 μM; for metabolic stability (in words): hepatic microsomes. On the technique in general: Microsomes from liver hold many membrane-bound enzymes, among them those of drug oxidation.
Protocol: Compounds, each at 5 μM, were incubated for specified times at 37° C. with rat liver microsomes (1 mg protein/ml; Sigma-Aldrich, St. Louis, Mo.) in potassium phosphate buffer (100 mM) containing 1 mM NADPH. The mixture was then chilled on ice, and 0.5 ml of ice-cold ethyl acetate was added.

A further data set addresses T1, UT-B (Mus musculus, UniProt Q8VHL0).
T1 sequence (Q8VHL0 1-384): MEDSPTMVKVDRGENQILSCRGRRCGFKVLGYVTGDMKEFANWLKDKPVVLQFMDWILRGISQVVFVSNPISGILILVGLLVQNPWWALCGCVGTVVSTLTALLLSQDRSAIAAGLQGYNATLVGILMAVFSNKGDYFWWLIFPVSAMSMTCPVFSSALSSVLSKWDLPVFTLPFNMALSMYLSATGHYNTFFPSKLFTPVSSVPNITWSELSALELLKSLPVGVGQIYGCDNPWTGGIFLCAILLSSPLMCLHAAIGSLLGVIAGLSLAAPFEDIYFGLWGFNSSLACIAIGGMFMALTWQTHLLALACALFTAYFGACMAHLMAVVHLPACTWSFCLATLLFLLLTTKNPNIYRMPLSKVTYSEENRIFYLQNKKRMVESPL
The data set is described as follows: Erythrocyte lysis assay of UT-B inhibition. It is filed as cell-based. Also on record: Screening was performed using mouse erythrocytes, which strongly express UT-B; endogenous in cells; host or cells: erythrocytes in whole blood of wild-type CD1 mice. The conditions noted are these: erythrocyte lysis assay, read-out: IC50. The method, then: Screening was performed using mouse erythrocytes, which strongly express UT-B and are highly water permeable because the cells also express aquaporin-1 (AQP1) water channels. The screening method involved assay of erythrocyte lysis in response to a large, outwardly directed gradient of acetamide, a urea analog that is transported efficiently by UT-B. A large, outwardly directed gradient of acetamide causes transient cell swelling, but little cell lysis, because UT-B-facilitated acetamide efflux limits water influx (see FIG. 1A). UT-B inhibition prevents acetamide efflux, allowing unopposed cell swelling and consequent cell lysis, which was recorded by reduced near-infrared light absorption at 710 nm.
Primary screening was done using a collection of 100,000 diverse, drug-like compounds from commercial sources (ChemDiv, San Diego, Calif.; Asinex, Winston-Salem, N.C.). […] Vigorous mixing was achieved by repeated pipetting. Erythrocyte lysis was quantified by absorbance at 710 nm wavelength, made within 5 min after hypo-osmolar shock. […] For analysis of structure-activity relationships >900 commercially available analogs (ChemDiv and Asinex) were tested.

Where [2] appears, read: Table 1, commercially available analogues.

The term IC50 denotes the concentration that gives 50% inhibition.

Regarding `COc1ccc(CNc2nc3c(S(=O)(=O)c4ccc(C)cc4)nnn3c3ccsc23)cc1` [Compound 2ad, [3-(4-methyl-benzenesulfonyl)-thieno[2,3-e][1,2,3]triazolo[1,5-a]pyrimidin-5-yl]-(4-methoxy-benzyl)-amine], in data set [1], the “% Remaining after 10 min incubation with liver microsomes” value (“% Remaining after 10 min incubation” for short) turned out to be 80% and the “metabolic stability (in words)” value is on record as “improved metabolic stability”. In addition, the IC50 on UT-B (setting [2]) amounted to 1660 nM.

As for `Cc1ccc(S(=O)(=O)c2nnn3c2nc(NCc2ccc(F)cc2)c2sccc23)cc1` [Compound 2aj, [3-(4-methyl-benzenesulfonyl)-thieno[2,3-e][1,2,3]triazolo[1,5-a]pyrimidin-5-yl]-(4-fluoro-benzyl)-amine], in data set [1], the “% Remaining after 10 min incubation” value came out at 86% and the “metabolic stability (in words)” value was “improved metabolic stability”. At UT-B (setting [2]), the half-maximal inhibitory concentration (IC50) came to 733 nM.

`Cc1ccc(S(=O)(=O)c2nnn3c2nc(NCc2ccco2)c2sccc23)cc1C` [Compound 2am, furan-2-ylmethyl-[3-(3,4-dimethyl-benzenesulfonyl)-thieno[2,3-e][1,2,3]triazolo[1,5-a]pyrimidin-5-yl]-amine]: the “% Remaining after 10 min incubation” value in data set [1] was less than 2%. Besides, the half-maximal inhibitory concentration (IC50) at UT-B (setting [2]) worked out at 156 nM.

In the case of `Cc1ccc(S(=O)(=O)c2nnn3c2nc(N2CCOCC2)c2sccc23)cc1C` [Compound 2an], the “% Remaining after 10 min incubation” value in data set [1] came out at 6%. The IC50 on UT-B (setting [2]) came to 1710 nM.

Consider `Cc1ccc(S(=O)(=O)c2nnn3c2nc(NCc2ccccc2)c2sccc23)cc1C` [Compound 2ao, [3-(3,4-dimethyl-benzenesulfonyl)-thieno[2,3-e][1,2,3]triazolo[1,5-a]pyrimidin-5-yl]-benzyl-amine], for which, in data set [1], the “% Remaining after 10 min incubation” value stood at 3%. At UT-B (setting [2]), the IC50 came out at 1000 nM.

Take `COc1ccccc1CNc1nc2c(S(=O)(=O)c3ccc(C)c(C)c3)nnn2c2ccsc12` [Compound 2as, [3-(3,4-dimethyl-benzenesulfonyl)-thieno[2,3-e][1,2,3]triazolo[1,5-a]pyrimidin-5-yl]-(2-methoxy-benzyl)-amine]: the “% Remaining after 10 min incubation” value in data set [1] is listed as 15%. For the same molecule, the IC50 at UT-B (setting [2]) turned out to be 1040 nM.

In the case of `COc1ccc(CNc2nc3c(S(=O)(=O)c4ccc(C)c(C)c4)nnn3c3ccsc23)cc1` [Compound 2at, [3-(3,4-dimethyl-benzenesulfonyl)-thieno[2,3-e][1,2,3]triazolo[1,5-a]pyrimidin-5-yl]-(4-methoxy-benzyl)-amine], in data set [1], the “% Remaining after 10 min incubation” value is recorded as 12%. On UT-B (setting [2]), the IC50 was 1540 nM.

For the molecule `Cc1ccc(S(=O)(=O)c2nnn3c2nc(NCCC(C)C)c2sccc23)cc1C` [Compound 2au], in data set [1], the “% Remaining after 10 min incubation” value was 35%. The IC50 at UT-B (setting [2]) was 854 nM.

As to `CCOCCCNc1nc2c(S(=O)(=O)c3ccc(C)c(C)c3)nnn2c2ccsc12` [Compound 2aw, {3-[3,4-dimethyl-benzenesulfonyl]-thieno[2,3-e][1,2,3]triazolo[1,5-a]pyrimidin-5-yl}-3-ethoxylpropyl-amine], in data set [1], the “% Remaining after 10 min incubation” value turned out to be 2%. In addition, on UT-B (setting [2]), the concentration for half-maximal inhibition (IC50) was 520 nM.

With `Cc1ccc(S(=O)(=O)c2nnn3c2nc(N2CCCCC2)c2sccc23)cc1C` [Compound 2az], in data set [1], the “% Remaining after 10 min incubation” value is reported as less than 2%. In addition, at UT-B (setting [2]), the IC50 came to 1760 nM.

`Cc1ccc(S(=O)(=O)c2nnn3c2nc(NCc2ccc(Cl)cc2)c2sccc23)cc1C` [Compound 2bc, [3-(3,4-dimethyl-benzenesulfonyl)-thieno[2,3-e][1,2,3]triazolo[1,5-a]pyrimidin-5-yl]-(4-chloro-benzyl)-amine]: in data set [1], the “% Remaining after 10 min incubation” value came out at 83% and the “metabolic stability (in words)” value is “improved metabolic stability”. The IC50 at UT-B (setting [2]) was determined as 582 nM.

Consider `Cc1ccc(S(=O)(=O)c2nnn3c2nc(NCc2cccs2)c2sccc23)cc1C` [Compound 2bd, {3-[3,4-dimethyl-benzenesulfonyl]-thieno[2,3-e][1,2,3]triazolo[1,5-a]pyrimidin-5-yl}-thiophen-2-ylmethyl-amine], for which the “% Remaining after 10 min incubation” value in data set [1] is less than 2%. At UT-B (setting [2]), the half-maximal inhibitory concentration (IC50) was 37 nM.

As for `O=S(=O)(c1ccc(Cl)cc1)c1nnn2c1nc(NCc1ccco1)c1sccc12` [Compound 2bf, furan-2-ylmethyl-[3-(4-chloro-benzenesulfonyl)-thieno[2,3-e][1,2,3]triazolo[1,5-a]pyrimidin-5-yl]-amine], the “% Remaining after 10 min incubation” value in data set [1] was determined as 21%. The 50% inhibitory concentration (IC50) on UT-B (setting [2]) is 1870 nM.

`CCCCNc1nc2c(S(=O)(=O)c3ccc(Cl)cc3)nnn2c2ccsc12` [Compound 2bg]: the “% Remaining after 10 min incubation” value in data set [1] is reported as 74%. Moreover, the IC50 on UT-B (setting [2]) was 1260 nM.

For the molecule `COCCNc1nc2c(S(=O)(=O)c3ccc(Cl)cc3)nnn2c2ccsc12` [Compound 2bh, {3-[4-chloro-benzenesulfonyl]-thieno[2,3-e][1,2,3]triazolo[1,5-a]pyrimidin-5-yl}-2-methoxyethyl-amine], the “% Remaining after 10 min incubation” value in data set [1] was 63%. The IC50 at UT-B (setting [2]) came to 1910 nM.

With `O=S(=O)(c1ccc(Cl)cc1)c1nnn2c1nc(NCc1cccs1)c1sccc12` [Compound 2bi, {3-[4-chloro-benzenesulfonyl]-thieno[2,3-e][1,2,3]triazolo[1,5-a]pyrimidin-5-yl}-thiophen-2-ylmethyl-amine], in data set [1], the “% Remaining after 10 min incubation” value was 52%. The IC50 at UT-B (setting [2]) was determined as 214 nM.

In the case of `CCCCNc1nc2c(S(=O)(=O)c3ccc(C(C)C)cc3)nnn2c2ccsc12` [Compound 2bm], the “% Remaining after 10 min incubation” value in data set [1] was less than 2%. Moreover, at UT-B (setting [2]), the IC50 is 191 nM.

`COCCNc1nc2c(S(=O)(=O)c3ccc(C(C)C)cc3)nnn2c2ccsc12` [Compound 2bo, {3-[4-isopropyl-benzenesulfonyl]-thieno[2,3-e][1,2,3]triazolo[1,5-a]pyrimidin-5-yl}-2-methoxyethyl-amine]: the “% Remaining after 10 min incubation” value in data set [1] was found to be 14%. Besides, the IC50 at UT-B (setting [2]) came to 711 nM.

As to `CCc1ccc(S(=O)(=O)c2nnn3c2nc(NCc2ccco2)c2sccc23)cc1` [Compound 2bp, furan-2-ylmethyl-[3-(4-ethyl-benzenesulfonyl)-thieno[2,3-e][1,2,3]triazolo[1,5-a]pyrimidin-5-yl]-amine], the “% Remaining after 10 min incubation” value in data set [1] is recorded as 12%. Moreover, at UT-B, the concentration for half-maximal inhibition (IC50) was found to be 239 nM.

Consider `CCc1ccc(S(=O)(=O)c2nnn3c2nc(NCc2ccccc2)c2sccc23)cc1` [Compound 2br, [3-(4-ethyl-benzenesulfonyl)-thieno[2,3-e][1,2,3]triazolo[1,5-a]pyrimidin-5-yl]-benzyl-amine], for which the “% Remaining after 10 min incubation” value in data set [1] was 44%. In addition, the IC50 at UT-B (setting [2]) was determined as 664 nM.

Consider `CCc1ccc(S(=O)(=O)c2nnn3c2nc(N(CC)CC)c2sccc23)cc1` [Compound 2bs], for which, in data set [1], the “% Remaining after 10 min incubation” value turned out to be 6%. For the same molecule, on UT-B (setting [2]), the concentration for half-maximal inhibition (IC50) was determined as 1770 nM.

Turning to `CCc1ccc(S(=O)(=O)c2nnn3c2nc(NCc2ccc(Cl)cc2)c2sccc23)cc1` [Compound 2bt, [3-(4-ethyl-benzenesulfonyl)-thieno[2,3-e][1,2,3]triazolo[1,5-a]pyrimidin-5-yl]-(4-chloro-benzyl)-amine], in data set [1], the “% Remaining after 10 min incubation” value came to 81% and the “metabolic stability (in words)” value is given as “improved metabolic stability”. The IC50 at UT-B (setting [2]) is 374 nM.

For `CCc1ccc(S(=O)(=O)c2nnn3c2nc(NCC2CCCO2)c2sccc23)cc1` (centres unmarked) [Compound 2bu, tetrahydrofuran-2-ylmethyl-[3-(4-ethyl-benzenesulfonyl)-thieno[2,3-e][1,2,3]triazolo[1,5-a]pyrimidin-5-yl]-amine], in data set [1], the “% Remaining after 10 min incubation” value was 26%. Also, the IC50 on UT-B (setting [2]) was 891 nM.

Turning to `CCc1ccc(S(=O)(=O)c2nnn3c2nc(NCCC(C)C)c2sccc23)cc1` [Compound 2bv], the “% Remaining after 10 min incubation” value in data set [1] was 59%. Moreover, the IC50 on UT-B (setting [2]) was 662 nM.

In the case of `CCc1ccc(S(=O)(=O)c2nnn3c2nc(NC(C)c2ccccc2)c2sccc23)cc1` (centres unmarked) [Compound 2bw, [3-(4-ethyl-benzenesulfonyl)-thieno[2,3-e][1,2,3]triazolo[1,5-a]pyrimidin-5-yl]-(1-phenyl-1-methyl)methyl-amine], the “% Remaining after 10 min incubation” value in data set [1] came to 34%. At UT-B (setting [2]), the concentration for half-maximal inhibition (IC50) amounted to 585 nM.

Turning to `CCc1ccc(S(=O)(=O)c2nnn3c2nc(NCc2cccc(OC)c2)c2sccc23)cc1` [Compound 2bx, [3-(4-ethyl-benzenesulfonyl)-thieno[2,3-e][1,2,3]triazolo[1,5-a]pyrimidin-5-yl]-(3-methoxy-benzyl)-amine], the “% Remaining after 10 min incubation” value in data set [1] is less than 2%. Also, the IC50 on UT-B (setting [2]) turned out to be 291 nM.
